Measurements from patent EP0431741A2, “Substituted pyrimidineamino compounds” (Beecham Group p.l.c., priority 1989, dated 1991).

How the values were obtained:
[1] = tested on: Spontaneously hypertensive rats; assay: Antihypertensive activity: systolic blood pressure by tail cuff method; assay type: in vivo; settings: for b.p. lower/dose: systolic blood pressure, spontaneously hypertensive rats; for active in test 1. (Antihypertensive Activity): result in words, no dose given
Method: Systolic blood pressures were recorded by a modification of the tail cuff method described by I.M. Claxton, M.G. Palfreyman, R.H. Poyser, R.L. Whiting, European Journal of Pharmacology, 37, 179 (1976). A W+W BP recorder, model 8005 was used to display pulses. Prior to all measurements rats were placed in a heated environment (33.5 ± 0.5 °C) before transfer to a restraining cage. Each determination of blood pressure was the mean of at least 5 readings. Spontaneously hypertensive rats (ages 12-18 weeks) with systolic blood pressures >180 mmHg were considered hypertensive.

trachea = assay: Bronchodilator activity: relaxation of isolated tracheal spirals, relative to isoprenaline maximum; assay type: cell-based, guinea pigs; settings: result in words; no value given
Method: Male guinea pigs (300-600g) were stunned by a blow to the head and bled from the carotid artery. The trachea was exposed, dissected free of connective tissue, and transferred to oxygenated Krebs solution at 37 °C. Next, spirals (2 per trachea) were prepared by cutting the whole trachea spirally along its longitudinal axis and then dividing this spiral lengthwise. Each preparation was mounted, using silk thread, in a 10ml organ bath filled with Krebs solution at 37 °C and bubbled with 5% CO₂ with O₂. The resting tension of the preparations was set at 2g and changes in muscle tension were monitored isometrically by means of a UFI (2oz) force and displacement transducer (Ormed Ltd) connected to a Linseis pen recorder. All preparations were allowed to equilibrate for 60 minutes. During this equilibration period the preparations were washed by upward displacement at 15 minute intervals and, if necessary, the resting tension was readjusted to 2g using a mechanical micromanipulator system.
Once a steady resting tension had been obtained, the preparations were dosed simultaneously with the test compound (10⁻⁸-2x10⁻⁵M), and finally a maximum relaxation achieved by addition of 10⁻³M isoprenaline. The fall in tension evoked by the test compound was expressed as a percentage of the total relaxation evoked in the presence of 10⁻³ isoprenaline. […]

| Structure (SMILES) | b.p. lower/dose ([1]; dose 0.15mgkg⁻¹) | b.p. lower/dose ([1]; dose 0.3mgkg⁻¹) | active in test 1. (Antihypertensive Activity) [1] | active in test 2. (Bronchodilator Activity) (trachea) |
| --- | --- | --- | --- | --- |
| CC1(C)Oc2ccc(C#N)cc2[C@@H](Nc2cc(Cl)ncn2)[C@@H]1O (racemic) [El, Trans-6-cyano-4-[(6-chloropyrimidin-4-yl)amino]-3,4-dihydro-2,2-dimethyl-2H-1-benzopyran-3-ol] | 38%/0.15mgkg⁻¹ | 36%/0.3mgkg⁻¹ | – | – |
| CNc1cc(N[C@@H]2c3cc(C#N)ccc3OC(C)(C)[C@H]2O)ncn1 (racemic) [Example 2] | – | – | active | active |
| CC1(C)Oc2ccc(C#N)cc2[C@@H](Nc2cc(N)ncn2)[C@@H]1O (racemic) [Example 3] | – | – | active | active |
